Data as given in patent US9593149B2, “Amylin and calcitonin receptor agonist” (Novo Nordisk A/S, priority 2014, dated 2017).
Numbered stars: 1 amine (or outer) side, 2 acyl side, 3 side chain; on linkers, the order of the positions; unused ones are H or OH. Side chains are listed from the residue outwards. Peptide text beside a SMILES is read from it. * marks the point of attachment. C20 diacid = O=C(O)CCCCCCCCCCCCCCCCCCC(=O)*; C18 diacid = O=C(O)CCCCCCCCCCCCCCCCC(=O)*; γGlu = O=C(O)[C@H](CCC(=O)[*:2])N[*:1]

Columns and labels:
[1] = Assay (XV) subcutaneous PK in LYD-pigs, co-formulated or co-dosed with liraglutide; assay type: in vivo; conditions: for AUC/D / Cmax/D / T½: LYD-pigs s.c.
Procedure: The studies were performed in female LYD pigs of SPF origin delivered from Lars Jonson, Hillerødvej 70, Lynge.
Before the animals arrived, the animal rooms and pens were cleaned and disinfected with Virkon S. During the study, the animal rooms were cleaned and washed regularly.
The pigs were group housed during the acclimatisation period. The pigs were fitted with a central venous catheter while under anaesthesia and after the single housed after catheterization in pens ≧3.1 m^2 with straw as bedding. The temperature in the rooms was set at 20−23° C. and the relative humidity to 30-70%. The rooms were illuminated to give a cycle of 12 hours light and 12 hours darkness. Light was on from 07.00 to 19.00 h.
The formulations was prepared similarly and filled in cartridges in all cases.
The animals were dosed subcutaneously as follows.
The s.c. dosing was performed in 4 mm depth, in a site of injection which was secured on beforehand by ultrasound to avoid muscular tissue or heavy vascularization. Dosing was made using NovoPen®4 and needle Novofine 28 G and a needle stopper to ensure 4 mm depth of injection. The needle was kept in the subcutis for 10 seconds after the injection to secure deposition of compound. […] The co-formulation was administered as one injection. Study was performed as a cross over study with adequate wash out between dosings.
Blood was sampled at predefined time points for up till 15 days post dosing to adequately cover the full plasma concentration-time profile of the mimylin derivative. Blood samples were drawn from a central venous catheter to jugularis made through the catheter which was afterwards flushed with 10 ml 0.9% NaCl.
For each blood sampling time point approximately 0.8 mL of whole blood was collected in a 1.5 mL EDTA coated tube, and the tube was gently turned to allowing mixing of the sample with the anticoagulant. Blood samples (for example 0.8 mL) were collected in EDTA buffer (8 mM) and then centrifuged at 4° C. and 2000 G for 10 minutes. Plasma was pipetted into Micronic tubes on dry ice, and kept at −20° C. until analysis.
Individual plasma concentration-time profiles were analysed by a non-compartmental model in Phoenix WinNonlin version 6.3 (Pharsight Inc., Mountain View, Calif., USA).
The area under the plasma concentration versus time curve (AUC, [time×concentration]) was calculated (by the Pharsight programme) after subcutaneous administration, typically until 240-288 hours post dosing, or until last measured concentration. The AUC was calculated and given as AUCinf-pred and dose normalized.
Results of co-formulation studies in LYD-pigs are summarized below

[2] = target: T1, human amylin receptor (Amylin 3(a)/CRE-luc cell membranes) (Homo sapiens, UniProt O60896+P30988); experiment: Assay (V) binding to the human amylin receptor (membrane, SPA); conditions: 125I-rat amylin, read-out: hAmylin-R binding IC50
T1 construct: host or cells: BHK570
T1 sequence (P30988 25-474): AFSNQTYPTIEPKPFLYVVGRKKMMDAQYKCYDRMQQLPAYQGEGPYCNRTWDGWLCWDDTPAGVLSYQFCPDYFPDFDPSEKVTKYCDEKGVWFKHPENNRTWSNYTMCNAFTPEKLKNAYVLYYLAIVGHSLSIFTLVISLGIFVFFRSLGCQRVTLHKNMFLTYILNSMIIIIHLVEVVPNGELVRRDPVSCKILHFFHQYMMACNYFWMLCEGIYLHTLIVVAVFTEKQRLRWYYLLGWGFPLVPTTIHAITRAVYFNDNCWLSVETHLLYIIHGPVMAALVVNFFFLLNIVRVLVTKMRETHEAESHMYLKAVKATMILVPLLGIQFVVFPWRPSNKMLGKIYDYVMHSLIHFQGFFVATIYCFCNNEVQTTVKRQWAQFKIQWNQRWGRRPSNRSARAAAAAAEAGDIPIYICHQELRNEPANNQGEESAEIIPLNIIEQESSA
T1 sequence (O60896 24-148 partner): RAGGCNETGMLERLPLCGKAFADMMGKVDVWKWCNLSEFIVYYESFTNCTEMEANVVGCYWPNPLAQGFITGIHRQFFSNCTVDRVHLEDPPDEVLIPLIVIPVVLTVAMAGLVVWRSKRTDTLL
Procedure: The binding assay was performed using scintillation proximity assay (SPA) beads (RPNQ0001) from PerkinElmer and cell membranes from the Amylin 3(a)/CRE-luc cells (as described in Assay (II)) were used. Membranes were prepared in the following way; the cells were rinsed with PBS and incubated with Versene for approximately 5 min before harvesting. The cells were flushed with PBS and the cell-suspension was centrifuged for 5 min at 1000 rpm. Cells were homogenized (ultrathurrax) in a buffer containing 20 mM Na-HEPES and 10 mM EDTA (pH 7.4) and centrifuged at 20.000 rpm for 15 min. The resulting pellet was resuspended, homogenized and centrifuged (20.000 rpm, 15 min) in a buffer containing 20 mM Na-HEPES and 0.1 mM EDTA (pH 7.4, buffer 2). The resulting pellet was resuspended in buffer 2 and protein concentration was tested (BCA protein Assay, Pierce). The homogenate was kept cold during the whole procedure. The membranes were kept at −80° C. until use. The assay was performed in a 384 well Optiplate (PerkinElmer) in a total volume of 40 ul. Membranes were mixed with SPA beads. Final concentration of membranes 35 ng/μL final and SPA beads was 0.05 mg/well. […] Samples were analyzed on TopCounter™ (Packard). The IC50 was calculated using (one site binding competition analysis) GraphPad Prism5 as a measure of receptor affinity.

[3] = Co-formulation liraglutide + Ex #2

AUC/D ([1]; Co-dosing liraglutide + Ex #2) [kg·h/L] | Cmax/D ([1]; Co-dosing liraglutide + Ex #2) [kg/L] | T½ ([1]; Co-dosing liraglutide + Ex #2) [h] | AUC/D [1, 3] [kg·h/L] | Cmax/D [1, 3] [kg/L] | T½ [1, 3] [h] | IC50 [2] [nM] | SMILES | effect on PK profile of the co-formulated peptide ([1]; administered as co-formulations to LYD pigs)
712 | 6.9 | 67 | 732 | 5.8 | 67 | – | CC(C)C[C@H](NC(=O)[C@H](C)NC(=O)[C@H](C)NC(=O)[C@@H](NC(=O)[C@H](CO)NC(=O)[C@H](CC(C)C)NC(=O)[C@H](CCC(=O)O)NC(=O)[C@H](CO)NC(=O)[C@H](C)NC(=O)[C@H](CCC(=O)O)NC(=O)CCCCCCCCCCCCCCCCC(=O)O)[C@@H](C)O)C(=O)NCC(=O)N[C@@H](CCCNC(=N)N)C(=O)N[C@@H](CC(C)C)C(=O)N[C@@H](CO)C(=O)N[C@@H](C)C(=O)N[C@@H](CCC(=O)O)C(=O)N[C@@H](CC(C)C)C(=O)N[C@@H](Cc1cnc[nH]1)C(=O)N[C@@H](CCC(=O)O)C(=O)N[C@@H](CC(C)C)C(=O)N[C@@H](C)C(=O)N[C@H](C(=O)N[C@@H](CC(C)C)C(=O)N1CCC[C@H]1C(=O)N[C@@H](CCCNC(=N)N)C(=O)N[C@H](C(=O)N[C@@H](CCC(=O)O)C(=O)N[C@H](C(=O)NCC(=O)N1CCC[C@H]1C(=O)N[C@@H](CCC(=O)O)C(=O)N[C@@H](CO)C(=O)N1CCC[C@H]1C(N)=O)[C@@H](C)O)[C@@H](C)O)[C@@H](C)O [Ex. #2, [N-terminal(C18 diacid)]mimylin] ({C18 diacid}-EASELSTAALGRLSAELHELATLPRTETGPESP-NH2) | do not affect the PK profile of liraglutide
– | – | – | – | – | – | 0.05 | CC(=O)N[C@@H](C)C(=O)N[C@@H](CO)C(=O)N[C@@H](CCCCNC(=O)CC[C@H](NC(=O)CCCCCCCCCCCCCCCCCCC(=O)O)C(=O)O)C(=O)N[C@@H](CC(C)C)C(=O)N[C@@H](CO)C(=O)N[C@H](C(=O)N[C@@H](C)C(=O)N[C@@H](C)C(=O)N[C@@H](CC(C)C)C(=O)NCC(=O)N[C@@H](CCCNC(=N)N)C(=O)N[C@@H](CC(C)C)C(=O)N[C@@H](CO)C(=O)N[C@@H](C)C(=O)N[C@@H](CCC(=O)O)C(=O)N[C@@H](CC(C)C)C(=O)N[C@@H](Cc1c[nH]cn1)C(=O)N[C@@H](CCC(=O)O)C(=O)N[C@@H](CC(C)C)C(=O)N[C@@H](C)C(=O)N[C@H](C(=O)N[C@@H](CC(C)C)C(=O)N1CCC[C@H]1C(=O)N[C@@H](CCCNC(=N)N)C(=O)N[C@H](C(=O)N[C@@H](CCC(=O)O)C(=O)N[C@H](C(=O)NCC(=O)N[C@@H](CO)C(=O)NCC(=O)N[C@@H](CO)C(=O)N1CCC[C@H]1C(N)=O)[C@@H](C)O)[C@@H](C)O)[C@@H](C)O)[C@@H](C)O [compound 68, [N-terminal(acetyl), des1, 4K(C20 diacid-gGlu), 30S, 31G]mimylin] (Ac-ASK([γGlu-C20 diacid])LSTAALGRLSAELHELATLPRTETGSGSP-NH2) | –
– | – | – | – | – | – | 0.309 | CC(C)C[C@H](NC(=O)[C@H](CCC(=O)O)NC(=O)[C@H](C)NC(=O)[C@@H](NC(=O)[C@H](CC(C)C)NC(=O)[C@H](CCCNC(=N)N)NC(=O)CNC(=O)[C@H](CC(C)C)NC(=O)[C@@H](NC(=O)[C@H](C)NC(=O)[C@@H](NC(=O)[C@@H](NC(=O)[C@H](CC(C)C)NC(=O)[C@H](CCC(=O)O)NC(=O)[C@H](CO)NC(=O)[C@H](C)NC(=O)CC[C@H](NC(=O)CCCCCCCCCCCCCCCCC(=O)O)C(=O)O)[C@@H](C)O)[C@@H](C)O)C(C)C)[C@@H](C)O)C(=O)N[C@@H](Cc1c[nH]cn1)C(=O)N[C@@H](CCC(=O)O)C(=O)N[C@@H](CC(C)C)C(=O)N[C@@H](CCC(=O)O)C(=O)N[C@H](C(=O)N[C@@H](CC(C)C)C(=O)N1CCC[C@H]1C(=O)N[C@@H](CCCNC(=N)N)C(=O)N[C@H](C(=O)N[C@@H](CCC(=O)O)C(=O)N[C@H](C(=O)NCC(=O)N[C@H](C(=O)NCC(=O)N[C@H](C(=O)N1CCC[C@H]1C(N)=O)[C@@H](C)O)[C@@H](C)O)[C@@H](C)O)[C@@H](C)O)[C@@H](C)O [compound 105, [N-terminal(C18 diacid-gGlu), des1, 6T, 9V, 14T, 21E, 30T, 31G, 32T]mimylin] ({C18 diacid-γGlu}-ASELTTAVLGRLTAELHELETLPRTETGTGTP-NH2) | –
